Experimental data from article PMC6466596, “New Chloramphenicol Derivatives from the Viewpoint of Anticancer and Antimicrobial Activity” (Antibiotics, 2019).
Read-outs that look alike come from different tables or passages of the source.

Legend:
Escherichia coli ΔTolC = assay: In vivo antibacterial activity (growth inhibition in LB culture, OD560); type: cell-based; details: read-out: EC50 Escherichia coli ΔTolC
Procedure: (§1) The in vivo antibacterial activity of the conjugates was determined using the following three bacterial strains: wild-type Escherichia coli K12 (E. coli K12), Escherichia coli ΔTolC mutant strain (E. coli ΔTolC) lacking the TolC protein, which is involved in the efflux pumps operation, and wild-type Staphylococcus aureus (S. aureus). The anti-tumor activity of the conjugates was assessed using the human ZL34 and MeT5A cell lines, which were kindly offered by Professor G. Stathopoulos (University of Patras). ZL34 are cancer cells, derived from malignant pleural mesothelioma, while MeT5A are immortalized cells, which originate from healthy mesothelial tissue.
(§2) For the experimental procedures, the bacteria were cultured in luria broth (LB) medium (tryptone 10 g/L, yeast extract 5 g/L, NaCl 10 g/L) as previously described. The bacteria cultures were grown in the presence of CAM or each conjugate at increasing concentration (1–100 μM). The cultures were incubated at 37 °C until the absorbance (OD560) of the reference culture in the absence of antibiotic reached the value of 0.7. At this point, the growth of the cultures was terminated by placing them in an ice bath, and the measurement of the optical density followed. These measurements were used to calculate the half-maximal effective concentration (EC50) values.

Staphylococcus aureus = assay: as above; type: cell-based; details: read-out: EC50 Staphylococcus aureus
Procedure: as §1, §2

Escherichia coli K12 = assay: as above; type: cell-based; details: K12, read-out: EC50 Escherichia coli K12
Procedure: as §1, §2

E. coli 70S ribosome = assay: Competition with [14C]-chloramphenicol for binding to the ribosome (filter binding); details: calculated from IC50 by Cheng–Prusoff; [14C]-CAM constant at 10 μM; read-out: Ki (binding affinity constant)
Procedure: Reassociated 70S ribosomes were prepared from E. coli K12 cells as described previously. 70S ribosomes were incubated in buffer A (100 mM Tris-HCl pH 7.2, 100 mM ammonium acetate, 10 mM magnesium acetate, 6 mM β-mercaptoethanol) with 10 μΜ [^14C]-chloramphenicol (150 dpm/pmol) at a final concentration of 0.20 μM [23]. After incubation for 10 min at 37 °C, the mixture was diluted with 3 mL of cold buffer A and filtered through a 25-mm diameter cellulose nitrate membrane filter (Millipore 0.45 μm pore size). The filter was washed three times with 3 mL of cold buffer A and the radioactivity which remained bound on the filter was measured. The binding of [^14C]-chloramphenicol was studied in competition with CAM or PA–CAM conjugates by keeping the concentration of [^14C]-CAM constant (10 μM) and increasing the concentration of non-radioactive conjugates.
To clarify whether the new PA–CAM conjugates maintain their binding site on the 70S bacterial ribosome, we carried out competition experiments. […] The affinity constants, Ki, were calculated using the following Cheng–Prusoff relationship (1) and their values are presented in Table 3. According to the values of Table 3, the decrease of the affinity for 70S ribosome follows the order 3>7>4>6>CAM>5. (1) Ki=IC50/1+[I]/KD where [I] is the concentration of [^14C]-CAM (constant at 10 μM) and KD is the dissociation constant of ribosome–chloramphenicol complex formation.

ZL34 mesothelioma cells = type: cell-based, human
Procedure: as §1
(§3) The antitumor activity of the conjugates was assessed using the human ZL34 and MeT5A cell lines as previously described. ZL34 and Met5A cells were plated in sterile 6-well microtiter plates and grown in Dulbecco’s modified Eagle’s medium (DMEM), supplemented with 10% heat-inactivated fetal bovine serum and 1% penicillin/streptomycin. Cultures were maintained in a humidified atmosphere with 5% CO2 at 37 °C. Compounds 3 and 4 were added at final concentrations of 30 and 60 μΜ, and then cells were grown for 24, 72 and 96 h. In parallel, solutions of conjugates combined with a ten-fold concentration of SPD were incubated under the same conditions. After treatment, the drug was removed by washing the cells twice with phosphate-buffered saline (PBS). The cells were then trypsinized (0.5 mL trypsin-EDTA×1 solution/well, 5 min at 37 °C), mixed with 1 mL DMEM and collected by centrifugation at 3000 × g for 5 min. Cell viabilities were determined by the trypan blue exclusion assay, using a TC10 automated cell counter (BIORAD). Viable cells were expressed as a percentage of total cells.

[1] = test system: mitochondrial cytochrome c oxidase subunit II (COX2) in ZL34 cells; assay: Immunoblotting of COX2 (mitochondrial protein synthesis); type: cell-based, human; details: 60 μΜ, 48 h; normalized to actin; result in words
Procedure: (§4) Cell lysates were prepared after treatment with 60 μΜ of conjugates for 48 h. Total cellular proteins were isolated at 4 °C using RIPA buffer (ABCAM) and mixed with 4% SDS-containing loading buffer. Protein concentrations were determined using Bradford assay. Lysates ([…]) were reduced in Laemmli buffer containing 1 mM dithiothreitol, resolved by 10% SDS-PAGE and electrotransfered to Immobilon-P PVDF membranes (Millipore, Massachusetts, USA) according to standard procedures. Blots were incubated at 4 °C overnight with rabbit monoclonal antibody against mitochondrial cytochrome c oxidase subunit II (COX2) (anti-mtCO2 antibody, ABCAM) at a 1:1000 dilution in blocking buffer. After washing with TBS-Tween and incubation with secondary antibody coupled to horse radish peroxidase, protein bands were visualized with ECL^TM chemiluminescence reagent (Amersham) and detected by autoradiography. The intensity of bands was quantified by Image Analysis, using the Image-Pro Plus 7 software (Media Cybernetics). Blots were re-probed with a mouse anti-actin antibody (Santa Cruz Biotechnology) to verify equal protein loading.

[2] = test system: mitochondrial cytochrome c oxidase subunit II (COX2) in Met5A cells; assay: as above; type: cell-based, human; details: 60 μΜ, 48 h; compared to ZL34; result in words
Procedure: as §4

[3] = test system: Met5A mesothelial immortalized cells; type: cell-based, human
Procedure: as §1, §3

Met5A cells = assay: Quantification of intracellular levels of conjugates and polyamines by RP-HPLC-DAD; type: cell-based, human; details: Met5A cells treated with 60 μΜ of compound; for Intracellular compound concentration: mean ± SD, three repetitions
Procedure: (§5) PAs and conjugates 3 and 4 in ZL34 and Met5A cells were determined by reverse phase high-performance liquid chromatography (RP-HPLC-DAD), as described previously. Briefly, 100 mg cells (wet weight), either ZL34 or Met5A, which were grown in the presence of 60 μΜ of conjugates, were washed and then homogenized in 0.6 M HClO4. Cultures grown in the absence of the conjugates were used as reference. In the isolates, hexamethylenediamine dihydrochloride was added as an internal standard, followed by dansylation and subsequent extraction by toluene. The extracts were dried, reconstituted in acetonitrile/10 mM phosphate buffer pH 4.4 (45:55 v/v) and filtered through a 0.2-μm membrane (Spartan 13/0.2 RC Whatman GmbH, Dassel, Germany) prior to HPLC analysis. The HPLC system included a Varian Star 9010 solvent delivery system with a 250 × 4.6 mm Luna 5 μm C18(2) 100 A column (Phenomenex Co., USA) and a photodiode array detector (Shimadzu SPDM20A).
(§6) The flow rate was set at 1.0 mL/min. Polyamines were quantified at 258 nm and the conjugates at 275 nm. The detection limits for PUT, SPD, and SPM were 52 pmol, 18 pmol, and 36 pmol at 258 nm, respectively. The detection limits for compounds 3 and 4 were 25 pmol and 30 pmol at 275 nm, respectively. All experiments were run in triplicate. The coefficients of variation (C.V.) of the intra-assays were 5–7%, while those of the inter-assays ranged from 13 to 17%. LC Solution Software (Shimadzu) was used for data processing and the results were expressed as nmol/mg protein.

ZL34 cells = assay: as above; type: cell-based, human; details: ZL34 cells treated with 60 μΜ of compound; for Intracellular compound concentration: mean ± SD, three repetitions
Procedure: as §5, §6

[4] = wild-type strain, mean ± SD, three independent experiments

Compound	EC50 (Escherichia coli ΔTolC) [µM]	EC50 (Staphylococcus aureus; [4]) [µM]	EC50 (Escherichia coli K12) [µM]	Ki (E. coli 70S ribosome) [µM]	Cytotoxicity / antiproliferative activity on ZL34 cancer cells (ZL34 mesothelioma cells)	COX2 expression in tumor cells (ZL34) [1]	COX2 levels in Met5A cells [2]	Cytotoxicity on immortalized Met5A cells [3]	PUT intracellular level (Met5A cells) [nmol/mg Protein]	SPD intracellular level (Met5A cells) [nmol/mg Protein]	SPM intracellular level (Met5A cells) [nmol/mg Protein]	Intracellular compound concentration (Met5A cells) [μΜ]	PUT intracellular level (ZL34 cells) [nmol/mg Protein]	SPD intracellular level (ZL34 cells)	SPM intracellular level (ZL34 cells)	Intracellular compound concentration (ZL34 cells) [μΜ]	EC50 (Staphylococcus aureus) [µM]
O=C(CCC(=O)N[C@H](CO)[C@H](O)c1ccc([N+](=O)[O-])cc1)NCCCN(Cc1ccccc1)Cc1ccccc1 [Compound 7]	> 200	> 200	> 200	1 ± 0.1	did not show any important antiproliferative activity	–	–	–	–	–	–	–	–	–	–	–	–
O=C(CCC(=O)N(CCCCN(Cc1ccccc1)Cc1ccccc1)CCCN(Cc1ccccc1)Cc1ccccc1)N[C@H](CO)[C@H](O)c1ccc([N+](=O)[O-])cc1 [Compound 4]	> 200	> 200	> 200	1.1 ± 0.1	demonstrated cytotoxicity	significant decrease	affected to a lesser extent	milder action	5.60 ± 1.10	8.14 ± 2.16	25.80 ± 6.57	7.40 ± 0.80	2.07 ± 0.91	5.36 ± 2.15 ^1 nmol/mg Protein	3.17 ± 1.70 ^2 nmol/mg Protein	29.00 ± 2.53	–
O=C(N[C@H](CO)[C@H](O)c1ccc([N+](=O)[O-])cc1)C(Cl)Cl [CAM, Chloramphenicol]	2.3 ± 0.6	–	6.2 ± 0.5	1.5 ± 0.1	–	–	–	–	–	–	–	–	–	–	–	–	3.4 ± 0.3
NCCCN(CCCCN(Cc1ccccc1)Cc1ccccc1)C(=O)CCC(=O)N[C@H](CO)[C@H](O)c1ccc([N+](=O)[O-])cc1 [Compound 3]	8.9 ± 0.7	6.8 ± 0.5	11 ± 0.9	0.8 ± 0.1	–	significant decrease	affected to a lesser extent	–	7.38 ± 1.93	7.38 ± 1.85	22.50 ± 3.11	3.75 ± 0.60	1.58 ± 0.13	4.18 ± 1.87 ^1 nmol/mg Protein	2.71 ± 1.17 ^2 nmol/mg Protein	5.96 ± 0.92	–
O=C(CCC(=O)N[C@H](CO)[C@H](O)c1ccc([N+](=O)[O-])cc1)NCCCCCCN(Cc1ccccc1)Cc1ccccc1 [Compound 6]	> 200	> 200	> 200	1.3 ± 0.2	did not show any important antiproliferative activity	–	–	–	–	–	–	–	–	–	–	–	–
O=C(CCC(=O)N[C@H](CO)[C@H](O)c1ccc([N+](=O)[O-])cc1)NCCCCN(Cc1ccccc1)Cc1ccccc1 [Compound 5]	> 200	> 200	> 200	2.6 ± 0.3	did not show any important antiproliferative activity	–	–	–	–	–	–	–	–	–	–	–	–
